From patent US20090076029A1 (Palatin Technologies, Inc., priority 2007, published 2009)
Like-named read-outs stand apart in the source and are kept apart here.

Legend:
hMC4-R [1] = test system: T1, hMC4-R; experiment: cAMP functional assay in HEK-293 cells expressing MC4-R (agonist, neutral antagonist/Schild); assay type: cell-based, human; details: for functional status (pAg, Ag, Antag, Inactive): MC4-R, Table 1; for intrinsic activity at MC4-R: NDP-α-MSH maximal stimulation = 1.0; for functional status at MC4-R: mostly at 1 μM
T1 construct: expressed in transfected cells; host or cells: HEK-293
Summary of the method: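 Cells in EBSS/HEPES pH 7.5 with 0.3 mM IBMX, exposed to compound (0.05-5000 nM, 1% DMSO) for 1 h at 37 °C; cAMP by EIA, EC50 by nonlinear regression. Antagonism: 30 min compound pre-incubation, then 1 nM NDP-α-MSH for 1 h; Schild analysis over 0.005-5000 nM agonist gives pA2.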

MC1-R [2] = test system: T2, MC1-R; experiment: cAMP functional assay, B-16 mouse melanoma cells expressing MC1-R; assay type: cell-based; details: cAMP assay at 1 μM
T2 construct: from B-16 mouse melanoma cells (containing MC1-R); endogenous in cells; host or cells: B-16 mouse melanoma cells
Procedure: (§1) General method for EC50 determination in functional activity assay. Functional evaluation of compounds at melanocortin receptors was performed by measuring the accumulation of intracellular cAMP in HEK-293 cells expressing hMC3-R, hMC4-R or hMC5-R, and in B-16 mouse melanoma cells expressing MC1-R. Cells suspended in Earle's Balanced Salt Solution containing 10 mM HEPES (pH 7.5), 5 mM MgCl2, 1 mM glutamine, 0.1% albumin and 0.6 mM 3-isobutyl-1-methyl-xanthine, a phosphodiesterase inhibitor, were plated in 96 well plates at a density of 0.5×10^5 cells per well. Cells were incubated with the test compounds in the presence or absence of α-MSH for 1 hour at 37° C. cAMP levels in the cell lysates were measured using an EIA kit (Amersham). Data analysis and EC50 values were determined using nonlinear regression analysis with Prism Graph-Pad software.
(§2) Functional status. The agonist/antagonist status with respect to MC1-R, MC-3R, MC4-R and MC5-R of certain compounds of the invention was determined.

hMC5-R [3] = molecular target: T3, hMC5-R; experiment: Competitive inhibition assay using [I125]-NDP-α-MSH, hMC5-R membranes; assay type: binding, human; details: for Ki: read-out: Ki (nM) (NDP-α-MSH) MC5-R; for Inhibition at 1 μM (NDP-α-MSH) MC5-R: 1 μM compound
T3 construct: expressed in transfected cells; host or cells: HEK-293
Summary of the method: (§3)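 Single-concentration displacement (usually 1 μM compound) of 0.2–0.4 nM [125I]-NDP-α-MSH, run 90 min at room temperature in pH 7.2 HEPES containing MgCl2, CaCl2 and KCl. Receptor sources: transfected HEK-293 membranes for human MC3-R/MC4-R/MC5-R, B-16 mouse melanoma membranes for MC1-R. Bound counts normalised to 1 μM α-MSH-defined specific binding; triplicates averaged, values below 0% set to 0%.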

hMC3-R [4] = test system: T4, hMC3-R; experiment: cAMP functional assay, HEK-293 cells expressing hMC3-R; assay type: cell-based, human; details: cAMP assay at 1 μM
T4 construct: expressed in transfected cells; host or cells: HEK-293
Procedure: as §1, §2

hMC3-R [5] = molecular target: T4, hMC3-R; experiment: Competitive inhibition assay using [I125]-NDP-α-MSH, hMC3-R membranes; assay type: binding, human; details: for Ki: read-out: Ki (nM) (NDP-α-MSH) MC3-R; for Inhibition at 1 μM (NDP-α-MSH) MC3-R: 1 μM compound
Summary of the method: as §3

MC1-R [6] = molecular target: T5, MC1-R; experiment: Competitive inhibition assay using [I125]-NDP-α-MSH, MC1-R membranes; assay type: binding, mouse
T5 construct: other: 1 μM compound

hMC4-R [7] = molecular target: T1, hMC4-R; experiment: Competitive inhibition assay using [I125]-NDP-α-MSH, hMC4-R membranes; assay type: binding, human; details: for Inhibition at 1 μM (NDP-α-MSH) MC4-R: 1 μM compound
hMC4-R [8] = test system: T1, hMC4-R; assay type: binding, human; details: for Inhibition at 1 μM (AgRP) MC4-R: 1 μM compound
Summary of the method: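 Membranes from hMC4-R-expressing cells incubated 1 h at 37 °C with 0.2 nM [I^125]-AgRP (83-132) and increasing compound in 25 mM HEPES pH 7.5, 100 mM NaCl, 2 mM CaCl2, 2 mM MgCl2, 0.3 mM 1,10-phenanthroline, 0.5% BSA. Filtration, gamma counting; specific binding kept ≤10% of added counts.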

hMC5-R [9] = test system: T3, hMC5-R; experiment: cAMP functional assay, HEK-293 cells expressing hMC5-R; assay type: cell-based, human; details: cAMP assay at 1 μM
Procedure: as §1, §2

MC4-R [10] = test system: T6, MC4-R; experiment: Assay for inverse agonist, HEK-293 cells expressing MC4-R; assay type: cell-based; details: FIG. 3
T6 construct: expressed in transfected cells; host or cells: HEK-293
Procedure: Assay for inverse agonist. […] The experimental protocol was essentially as described above. The cells were exposed to the test compounds over a concentration range of 0.05 nM to 5000 nM for 1 hour at 37° C. AgRP (83-132) was used as the reference inverse agonist. Data analysis and EC50 values were determined by using nonlinear regression analysis with the Prism Graph-Pad software.

MC1-R [11] = experiment: Competitive inhibition assay using [I125]-NDP-α-MSH, MC1-R membranes; assay type: binding, mouse; details: for Inhibition at 1 μM (NDP-α-MSH) MC1-R: 1 μM compound
MC4-R [12] = test system: T6, MC4-R; assay type: cell-based; details: HEK-293 cells expressing MC4-R
Description: Assay for Antagonists of AgRP in HEK-293/MC4-R Cells stimulated with Forskolin. […] AgRP causes a decrease in the basal adenylyl cyclase activity only to the extent of 40-50%. Even though the AgRP-induced decrease in cAMP levels is substantial, conventional assay methods, such as those described above, have limited sensitivity, precluding detecting small changes that are reversed by certain antagonists to AgRP. This limitation was circumvented by the use of a non-specific activator, forskolin, which directly activates adenylyl cyclase activity and raises cyclic AMP levels. Forskolin, a cell permeable diterpenoid initially isolated from Coleus forskohlii, has the ability to stimulate adenylyl cyclase activity and increase intracellular cAMP, thus activating cAMP-dependent protein kinase and other cAMP receptor proteins. See, e.g., Seamon, K. B., Daly, J. W. Forskolin: a unique diterpene activator of cyclic AMP-generating system. J. Cyclic Nucleotide Res. 7(4):201-24, 1981; Fradkin, J. E., Cook, G. H., Kilhoffer, M. C., Wolff, J. Forskolin stimulation of thyroid adenylate cyclase and cyclic 3′,5′-adenosine monophosphate accumulation. Endocrinology 111 (3):849-56, 1982; Barber, R., Goka, T. J. Adenylate cyclase activity as a function of forskolin concentration. J. Cyclic Nucleotide Protein Phosphor. Res. 10(1):23-9, 1985; and Laurenza, A., Sutkowski, E. M., Seamon, K. B. Forskolin: a specific stimulator of adenylyl cyclase or a diterpene with multiple sites of action? Trends Pharmacol. Sci. 10(11):442-7, 1989. […] The EC50 value was about 5 μM. AgRP inhibited the forskolin-induced response by 65% at a concentration of 10 nM. The difference in forskolin stimulated response and the inhibition due to AgRP in the cAMP levels was exploited to screen compounds for their ability to antagonize AgRP inhibition and […] levels of cAMP accumulation.
Experimental details for assays included incubating cells with the test compound in the presence of the inverse agonist AgRP with the extent of reversal of the AgRP effect measured by following the increase in the levels of intracellular cAMP. HEK-293 cells expressing MCR-4 were suspended in 10 mM HEPES/Earle's Balanced Salt Solution at pH 7.5 with the phosphodiesterase inhibitor IBMX, and pre-incubated for 30 minutes with the compounds (0.5-5000 nM). The cells were then treated with AgRP (10 nM) and incubated further for 30 minutes. The cells were then treated with forskolin (10 μM) and incubated for an additional 60 minutes. Cells were lysed and cAMP was measured by EIA kit (Amersham).

[13] = MC4-R membranes, Table 1, read-out: Ki (nM) I125-NPD-α-MSH
[14] = read-out: Ki (nM) (NDP-α-MSH) MC4-R
[15] = MC4-R membranes, Table 1, read-out: Ki (nM) I125-AgRP

Compound	functional status (pAg, Ag, Antag, Inactive) (hMC4-R [1])	intrinsic activity at MC4-R (hMC4-R [1])	functional status at MC4-R (hMC4-R [1]; cAMP assay)	Ki (hMC5-R [3]) [nM]	Ki (hMC3-R [5]) [nM]	Ki (hMC4-R [7]; [13]) [nM]	Ki (hMC4-R [7]; [14]) [nM]	Inhibition at 1 μM (AgRP) MC4-R (hMC4-R [8]) [%]	Ki (hMC4-R [8]; [15]) [nM]	Ki (hMC4-R [8]; read-out: Ki (nM) (AgRP) MC4-R)	Inhibition at 1 μM (NDP-α-MSH) MC5-R (hMC5-R [3]) [%]	Inhibition at 1 μM (NDP-α-MSH) MC3-R (hMC3-R [5]) [%]	Ki (MC1-R [11]) [nM]	Inhibition at 1 μM (NDP-α-MSH) MC1-R (MC1-R [11]) [%]	Inhibition at 1 μM (NDP-α-MSH) MC4-R (hMC4-R [7]) [%]	other results
CC(=O)N[C@H](Cc1ccc2ccccc2c1)C(=O)N1C[C@@H](CC(C)C)N(CCc2ccc3ccccc3c2)C[C@@H]1CCCNC(=N)N [Example 13, N-{2-[2(S)-(3-Guanidino-propyl)-5(R)-isobutyl-4(2-naphthalen-2-yl-ethyl)-piperazin-1-yl]-1(R)-naphthalen-2-ylmethyl-2-oxo-ethyl}-acetamide]	Antag (“Antag” means antagonist)	no intrinsic activity	antagonist	378	474	6	6	100	3.7	3.7						pA2 value at MC4-R (hMC4-R [1]; Schild plot vs NDP-α-MSH): 7.3; functional status at MC1-R (MC1-R [2]): no intrinsic activity (intrinsic activity below 0.1 (10%) is classified as inactive or having no intrinsic activity); functional status at MC3-R (hMC3-R [4]): no intrinsic activity (intrinsic activity below 0.1 (10%) is classified as inactive or having no intrinsic activity); Ki (MC1-R [6]): 4620 nM; Inhibition at 1 μM (NDP-α-MSH) MC1-R (MC1-R [6]; 1 μM compound): 0%; functional status at MC5-R (hMC5-R [9]): partial agonist (intrinsic activity between 0.1 (10%) and 0.7 (70%) is classified as a partial agonist); inverse agonism (basal cAMP) (MC4-R [10]): inverse agonism
NCCCC[C@H]1C(=O)N(CCc2ccc3ccccc3c2)CCN1C(=O)[C@@H](Cc1ccc(Cl)cc1Cl)NC(=O)/C=C/c1ccccc1 [Example 21, (E)-N—[(R)-2-[(S)-2-(4-Amino-butyl)-4-(2-naphthalen-2-yl-ethyl)-3-oxo-piperazin-1-yl]-1-(2,4-dichloro-benzyl)-2-oxo-ethyl]-3-phenyl-acrylamide]	pAg (“pAg” means partial agonist)	0.2		398	648	6	6	100	5	5	60	46	502	30	96	EC50 (hMC4-R [1]; cAMP assay, read-out: EC50 (nM) at MC4-R): 112 nM; attenuation of binding of α-MSH and AgRP to MC4-R (hMC4-R [7]; both ligands (NDP-α-MSH and AgRP), summary): attenuate the binding of both α-MSH and AgRP to MC4-R
N=C(N)NCCC[C@H]1CN(C(=O)Cc2ccc3ccccc3c2)[C@H](Cc2ccccc2)CN1C[C@H](N)Cc1ccc2ccccc2c1 [Example 30, N-{3-[1-[2(R)-Amino-3-naphthalen-2-yl-propyl]-5(R)-benzyl-4-(2-naphthalen-2-yl-acetyl)-piperazin-2(S)-yl]-propyl}-guanidine]	Inactive		inactive	178	387	55	61		90	90	87	49	2770	32	92	
Forskolin [reference compound]																total response relative to NDP-α-MSH (MC4-R [12]): three-fold higher; EC50 (MC4-R [12]; read-out: EC50 value (cAMP stimulation)): ~5000 nM
